Measured values published in patent US20120129811A1, “TRICYCLIC INHIBITORS OF PRO-MATRIX METALLOPROTEINASE ACTIVATION” (priority 2010, published 2012).
pIC50: −log10 of the molar value.

What was measured:
[1] = target: T1, proMMP9 activation to active MMP9 in rat synoviocytes (Rattus norvegicus, UniProt P50282); assay: Activation of proMMP9 in rat synoviocyte cultures (Western blot); format: cell-based
T1 construct: endogenous in cells; host or cells: primary synoviocytes from SCW-arthritic female Lewis rats, TNFα-stimulated
Excerpt: Activation of proMMP9 in Rat Synoviocyte Cultures
A primary synoviocytes line was derived from the periarticular tissue of arthritic rats. Arthritis was induced in female Lewis rats following an i.p. administration of streptococcal cell wall peptidoglycan polysaccharides (J Exp Med 1977; 146:1585-1602). Rats with established arthritis were sacrificed, and hind-limbs were severed, immersed briefly in 70% ethanol, and placed in a sterile hood. The skin was removed and the inflamed tissue surrounding the tibia-tarsal joint was harvested using a scalpel. Tissue from six rats was pooled, minced to approximately 8 mm^3 pieces, and cultured in Dulbecco's Modified Eagle's Medium (DMEM) containing 15% fetal calf serum (FCS). In the following weeks, cells migrated out of the tissue piece, proliferated, and formed a monolayer of adherent cells. The synoviocytes were lifted from culture plates with 0.05% trypsin and passaged weekly at 1:4 ratios in DMEM containing 10% FCS. Synoviocytes were used at passage 9 to investigate the ability of Compound-α to inhibit the maturation of MMP9 to active form.
Rat synoviocytes spontaneously expressed and activated MMP9 when cultured in collagen gels and stimulated with tumor necrosis factor-alpha (TNFα) (FIG. 1 and Table 3). Eight volumes of an ice-cold solution of 3.8 mg/mL rat tail collagen (Sigma Cat #C3867-1VL) were mixed with 1 volume of 1 M sodium bicarbonate and 1 volume of 10× Roswell Park Memorial Institute medium. The pH of the mixture was adjusted to pH 7 with 1 N sodium hydroxide and equal volumes of the pH-adjusted collagen solution were mixed with DMEM containing 0.8 million synoviocytes per mL. One half mL volumes were dispensed into Costar 24-well culture dishes and placed for one hr at 37° C. and 5% CO2, during which time the collagen solution formed a gel. Individual gels were dislodged into wells of 12-well Costar plates containing 1 mL/well of DMEM adjusted to contain 0.05% BSA and 100 ng/mL mouse TNFα (R&D Systems Cat #410-MT-010). […] After overnight culture at 37° C. and 5% CO2, wells were adjusted to contain an additional 0.5 mL of DMEM containing 0.05% BSA and Compound-α at 4× the final desired concentration (final culture volumes were 2 mL). The plates were cultured an additional 48 hrs, at which time 1 mL of conditioned media were harvested into fresh eppendorf tubes containing 40 μL/mL of a 50% slurry of gelatin-conjugated sepharose (GE Healthcare Cat #17-0956-01). Samples were rotated for 2 hrs at 4° C. before centrifugation 1 min×200 g. Supernatants were discarded. The gelatin-sepharose pellets were washed once with 1 mL of ice cold DMEM, resuspended in 50 μL of 2× reducing Leamli buffer and heated 5 min at 95° C. Fifteen μL of eluted proteins were resolved on 4-12% NuPAGE gels and transferred to 0.45 μm pore-sized nitrocellose blots. Next, blots were incubated in blocking buffer (5% milk in Tris-buffered saline containing 0.1% Tween-20) for 1 hr at RT and probed overnight (4° C.) with blocking buffer containing 1 μg/mL primary antibodies. Blots were next probed 1 hr at RT with 1/10,000 dilutions of goat anti-mouse IgG-HRP or goat anti-rabbit IgG-HRP (Santa Cruz) in blocking buffer and developed using SuperSignal® West Fempto Maximum Sensitivity Substrate. Chemiluminesence signal was analyzed using a ChemiDoc imaging system (BioRad Laboratories) and Quantity One® image software. Electrophoretic mobility was estimated based on the mobility of standards (Novex Sharp Pre-Stained Protein Standards P/N 57318). […]

[2] = target: T2, proMMP9 processing to active MMP9 in HFL-1 cells (Homo sapiens, UniProt P14780); assay: Activation of proMMP9 by human fetal lung fibroblast (HFL-1) cultures (Western blot); format: cell-based
T2 construct: host or cells: HFL-1 human fetal lung fibroblasts, TNFα plus neutrophil elastase
Protocol: Activation of proMMP 9 by Human Fetal Lung Fibroblast Cultures
Compound-α was assessed additionally for ability to block the maturation of proMMP9 to active MMP9 in cultures of human fetal lung fibroblasts (HFL-1, American Type Culture Collection # CCL-153). Unlike rat synoviocytes, HFL-1 cells were unable to process proMMP9 to the active form without addition of neutrophil elastase. […] Rather, the function of elastase in this assay may be to inactivate tissue inhibitors of matrix metalloproteinases (TIMPs) that repress endogenous pathways of MMP9 activation (Am J Respir Crit. Care Med; 1999; 159:1138-46).
HLF-1 were maintained in monolayer culture in DMEM with 10% FCS and were used between passage numbers 5-15. HLF-1 were embedded in collagen gels as described for rat SCW synoviocytes (vida supra). Half mL gels containing 0.4 million cells were dislodged into wells of 12 well Costar plates containing 1 mL/well of DMEM adjusted to contain 0.05% BSA and 100 ng/mL human TNFα (R&D Systems Cat #210-TA/CF). After overnight culture (37° C. and 5% CO2) wells were adjusted to contain an additional 0.5 mL of DMEM containing 0.05% BSA and with or without 13.2 μM Compound-α (final concentration was 3.3 μM Compound-α). Next, cultures were adjusted to contain 30 nM human elastase (Innovative Research). The plates were cultured an additional 72 hrs, at which time MMP9 secreted into the conditioned media was bound to gelatin-sepharose and evaluated by Western blot analysis as described for the rat synoviocyte cultures (vida supra). mAb-51/82 detected three forms of MMP9 in HFL-1 cultures.
A second experiment was performed to determine if the 80 kD form was mature active MMP9 and to determine the potency of Compound-α as an inhibitor of MMP9 maturation in this assay. HFL-1 cells embedded in collagen gels were cultured as described above in the presence of TNFα overnight and the cultures were then adjusted to contain 30 nM elastase and graded concentrations of Compound-α for an additional 72 hrs at which time MMP9 secreted into the conditioned media was bound to gelatin-sepharose and evaluated by Western blot analysis for active MMP9 using pAb-1246 raised against the N-terminal neoepitope of active MMP9 (Table 5). In the absence of Compound-α, pAb-1246 readily detected MMP9 with an electrophoretic mobility of approximately 80 kD. […] Inhibition occurred over a dose range with an IC50 of approximately 0.3 μM Compound-α.

T1 sequence (P50282 20-708 limits assumed): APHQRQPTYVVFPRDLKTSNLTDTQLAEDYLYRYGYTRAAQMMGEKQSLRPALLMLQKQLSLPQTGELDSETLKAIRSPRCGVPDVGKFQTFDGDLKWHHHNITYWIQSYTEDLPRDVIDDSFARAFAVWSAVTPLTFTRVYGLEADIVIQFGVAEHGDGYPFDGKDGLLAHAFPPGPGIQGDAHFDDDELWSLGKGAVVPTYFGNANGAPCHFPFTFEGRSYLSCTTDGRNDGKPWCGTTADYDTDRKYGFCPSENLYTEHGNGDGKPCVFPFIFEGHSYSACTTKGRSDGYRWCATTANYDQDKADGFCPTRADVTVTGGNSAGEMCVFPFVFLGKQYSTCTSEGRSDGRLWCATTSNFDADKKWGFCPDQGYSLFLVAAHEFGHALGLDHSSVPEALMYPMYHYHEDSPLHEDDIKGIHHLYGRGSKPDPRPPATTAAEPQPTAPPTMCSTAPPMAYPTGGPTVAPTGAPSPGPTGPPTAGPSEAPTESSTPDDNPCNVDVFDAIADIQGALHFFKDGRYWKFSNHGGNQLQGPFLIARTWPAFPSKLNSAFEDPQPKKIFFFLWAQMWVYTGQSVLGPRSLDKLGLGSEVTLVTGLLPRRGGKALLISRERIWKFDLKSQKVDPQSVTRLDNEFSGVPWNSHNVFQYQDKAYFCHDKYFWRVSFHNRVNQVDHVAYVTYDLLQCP
T2 sequence (P14780 20-707 limits assumed): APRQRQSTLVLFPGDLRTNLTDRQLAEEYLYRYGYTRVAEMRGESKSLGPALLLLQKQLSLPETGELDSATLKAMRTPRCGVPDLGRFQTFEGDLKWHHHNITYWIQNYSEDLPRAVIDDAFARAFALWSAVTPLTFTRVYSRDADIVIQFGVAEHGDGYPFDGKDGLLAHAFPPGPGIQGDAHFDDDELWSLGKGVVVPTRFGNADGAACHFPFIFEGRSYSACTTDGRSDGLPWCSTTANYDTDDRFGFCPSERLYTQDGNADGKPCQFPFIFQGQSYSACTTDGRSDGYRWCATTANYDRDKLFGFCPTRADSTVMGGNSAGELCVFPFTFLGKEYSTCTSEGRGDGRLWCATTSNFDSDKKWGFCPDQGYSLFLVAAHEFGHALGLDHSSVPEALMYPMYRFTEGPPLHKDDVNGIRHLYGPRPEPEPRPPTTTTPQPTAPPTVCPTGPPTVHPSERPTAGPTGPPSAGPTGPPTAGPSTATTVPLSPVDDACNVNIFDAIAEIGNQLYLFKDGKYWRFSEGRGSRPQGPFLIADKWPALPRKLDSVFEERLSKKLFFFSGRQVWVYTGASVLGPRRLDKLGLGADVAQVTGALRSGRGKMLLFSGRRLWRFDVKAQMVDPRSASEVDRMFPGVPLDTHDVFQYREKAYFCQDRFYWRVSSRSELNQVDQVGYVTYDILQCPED

Cc1nc(C)c(-c2csc(Nc3cc(S(N)(=O)=O)ccc3OC(C)C)n2)s1 [Compound α, 3-(2′,4′-Dimethyl-[4,5′]bithiazolyl-2-ylamino)-4-isopropoxy-benzenesulfonamide.HBr]
inhibition at 0.37 µM ([1]; 0.37 μM Compound-α, 80 kD active MMP9, pAb-1246): 12%
inhibition at 1.1 µM ([1]; 1.1 μM Compound-α, 80 kD active MMP9, pAb-1246): 46%
inhibition at 3.3 µM ([1]; 3.3 μM Compound-α, 80 kD active MMP9, pAb-1246): 86%
inhibition at 10 µM ([1]; 10 μM Compound-α, 80 kD active MMP9, pAb-1246): 97%
pIC50 ([1]; rat synoviocytes, pAb-1246 band chemiluminescence, read-out: IC50 for inhibition of production of active MMP9): ~5.96
Signal, Total ([2]; 3.3 μM Compound-α, 30 nM elastase, final 72 hrs, mAb-L51/82): 91346 INT * mm^2
Percent of total signal, 80 kD ([2]; 3.3 μM Compound-α, mAb-L51/82): 7%
Percent of total signal, 86 kD ([2]; 3.3 μM Compound-α, mAb-L51/82): 47%
Percent of total signal, 100 kD ([2]; 3.3 μM Compound-α, mAb-L51/82): 46%
inhibition at 0.12 µM ([2]; HFL1, 0.12 μM Compound-α, active MMP9, pAb-1246): 0%
inhibition at 0.37 µM ([2]; HFL1, 0.37 μM Compound-α, active MMP9, pAb-1246): 73%
inhibition at 1.1 µM ([2]; HFL1, 1.1 μM Compound-α, active MMP9, pAb-1246): 99%
inhibition at 3.3 µM ([2]; HFL1, 3.3 μM Compound-α, active MMP9, pAb-1246): 100%
inhibition at 10 µM ([2]; HFL1, 10 μM Compound-α, active MMP9, pAb-1246): 100%
pIC50 ([2]; HFL-1 cultures, pAb-1246, read-out: IC50 for inhibition of processing of proMMP9 to active MMP9): ~6.52
